# Reference: patent US20060008574A1, “Galactosyl isomalt, method for production and use thereof” (priority 2002, published 2006)
# Key:
# [1] = Stability in the stomach: hydrolysis rate at pH 2.0; assay type: physicochemical; conditions: 1% solution, 10 mmol/L hydrochloric acid, pH 2.0, 37° C.
# Experimental: The stability of a substance in the gastric passage can be simulated by determining the hydrolysis rate at pH 2.0. Sucrose and 1-kestose are used as controls.
# In each case a 1% solution of the trisaccharides (DP 3) from Example 4 is incubated with 10 mmol/L hydrochloric acid, pH 2.0 at 37° C. for 3 h. Samples are taken from the reaction mixture after 60, 120 and 180 min and are analyzed by basic anion exchange chromatography, HPAEC.
# lactase = assay: Stability with respect to lactase; assay type: in vitro ADME; conditions: 0.9 unit lactase, 1% solution, 37° C., 6 h
# Excerpt: The enzyme lactase that is present at the mucosa in the small intestine serves in vivo to break down lactose that gets into the small intestine and the resulting monosaccharides are absorbed into the bloodstream through the intestinal wall.
# The enzyme lactase is isolated in a modified method of Wallenfels, K., and Fischer, J. (Z. Physiologische Chemie 321 (1960) 223).
# Solutions 1-5: see Example 8c)
# Solution 6: 1% solution of lactose in solution 1
# Solution 7: 1% solution of isomalt in solution 1
# Solution 8: Lactase in solution 1
# (solutions 2-7), mixed and incubated at 37° C. The reaction is stopped after 6 h by heating to 95° C. for 15 min.
# [2] = system: B. adolescentis DSM 20083; assay: Fermentation by human bifidobacteria; assay type: cell-based; set-up: key: −: no decomposition; +: decomposition and metabolization of galactose from β-1,3-galactosyl isomalt; ++: decomposition and metabolization of galactose and glucose from β-1,3-galactosyl isomalt; +++: complete decomposition of β-1,3-galcatosyl isomalt; conditions: medium 2, 48 h
# Experimental: (§1) To investigate the prebiotic and bifidogenic properties of galactosyl isomalt, the growth of various human bifidobacteria was investigated on this substrate in vitro. An anaerobic medium of the following composition was used:
# (§2) 22 strains of human bifidobacteria were first precultured in “Hungate” test tubes on the above medium 1, in which the source of carbohydrate had first been replaced by glucose (10 g/L). The strains were then inoculated onto medium 2, incubated for 48 h, and then the optical density (E578), the pH, the formation of acetate and lactate and the decrease of the β-1,3-galactosyl isomalt concentration were determined.
# (§3) Various decomposition paths are distinguished with regard to the metabolization of galactosyl isomalt. Some strains degrade galactose from the substrate with a β-galactosidase and metabolize this monosaccharide (+).
# (§4) Other strains additionally degrade glucose from the resulting isomalt, in addition to galactose, metabolize both monosaccharides, while this is not true for the resulting mannitol or sorbitol (++). The third group is capable of utilizing galactosyl isomalt as a substrate and also metabolizing mannitol and sorbitol (+++).
# B. angulatum DSM 20225 = assay: Fermentation by human bifidobacteria; assay type: cell-based; set-up: key: −: no decomposition; +: decomposition and metabolization of galactose from β-1,3-galactosyl isomalt; ++: decomposition and metabolization of galactose and glucose from β-1,3-galactosyl isomalt; +++: complete decomposition of β-1,3-galcatosyl isomalt; conditions: medium 2, 48 h
# Experimental: as §1, §2, §3, §4
# B. bifidum DSM 20215 = assay: Fermentation by human bifidobacteria; assay type: cell-based; set-up: key: −: no decomposition; +: decomposition and metabolization of galactose from β-1,3-galactosyl isomalt; ++: decomposition and metabolization of galactose and glucose from β-1,3-galactosyl isomalt; +++: complete decomposition of β-1,3-galcatosyl isomalt; conditions: medium 2, 48 h
# Experimental: as §1, §2, §3, §4
# B. bifidum DSM 20239 = assay: Fermentation by human bifidobacteria; assay type: cell-based; set-up: key: −: no decomposition; +: decomposition and metabolization of galactose from β-1,3-galactosyl isomalt; ++: decomposition and metabolization of galactose and glucose from β-1,3-galactosyl isomalt; +++: complete decomposition of β-1,3-galcatosyl isomalt; conditions: medium 2, 48 h
# Experimental: as §1, §2, §3, §4
# B. catenulatum DSM 20103 = assay: Fermentation by human bifidobacteria; assay type: cell-based; set-up: key: −: no decomposition; +: decomposition and metabolization of galactose from β-1,3-galactosyl isomalt; ++: decomposition and metabolization of galactose and glucose from β-1,3-galactosyl isomalt; +++: complete decomposition of β-1,3-galcatosyl isomalt; conditions: medium 2, 48 h
# Experimental: as §1, §2, §3, §4
# B. catenulatum DSM 20224 = assay: Fermentation by human bifidobacteria; assay type: cell-based; set-up: key: −: no decomposition; +: decomposition and metabolization of galactose from β-1,3-galactosyl isomalt; ++: decomposition and metabolization of galactose and glucose from β-1,3-galactosyl isomalt; +++: complete decomposition of β-1,3-galcatosyl isomalt; conditions: medium 2, 48 h
# Experimental: as §1, §2, §3, §4
# B. infantis DSM 20088 = assay: Fermentation by human bifidobacteria; assay type: cell-based; set-up: key: −: no decomposition; +: decomposition and metabolization of galactose from β-1,3-galactosyl isomalt; ++: decomposition and metabolization of galactose and glucose from β-1,3-galactosyl isomalt; +++: complete decomposition of β-1,3-galcatosyl isomalt; conditions: medium 2, 48 h
# Experimental: as §1, §2, §3, §4
# B. infantis DSM 20218 = assay: Fermentation by human bifidobacteria; assay type: cell-based; set-up: key: −: no decomposition; +: decomposition and metabolization of galactose from β-1,3-galactosyl isomalt; ++: decomposition and metabolization of galactose and glucose from β-1,3-galactosyl isomalt; +++: complete decomposition of β-1,3-galcatosyl isomalt; conditions: medium 2, 48 h
# Experimental: as §1, §2, §3, §4
# B. longum DSM 20097 = assay: Fermentation by human bifidobacteria; assay type: cell-based; set-up: key: −: no decomposition; +: decomposition and metabolization of galactose from β-1,3-galactosyl isomalt; ++: decomposition and metabolization of galactose and glucose from β-1,3-galactosyl isomalt; +++: complete decomposition of β-1,3-galcatosyl isomalt; conditions: medium 2, 48 h
# Experimental: as §1, §2, §3, §4
# B. longum DSM 20219 = assay: Fermentation by human bifidobacteria; assay type: cell-based; set-up: key: −: no decomposition; +: decomposition and metabolization of galactose from β-1,3-galactosyl isomalt; ++: decomposition and metabolization of galactose and glucose from β-1,3-galactosyl isomalt; +++: complete decomposition of β-1,3-galcatosyl isomalt; conditions: medium 2, 48 h
# Experimental: as §1, §2, §3, §4
smiles,measurement,setting,value
"OCC1O[C@H](OC[C@@H](O)[C@@H](O)[C@H](O)C(O)CO)C(O)C(O[C@@H]2OC(CO)[C@H](O)C(O)C2O)[C@@H]1O (mixture of isomers) [β-1,3-Galactosyl isomalt, β-D-galactosyl-(1→3)-α-D-glucosyl-(1→6)-D-sorbitol(β-1,3-galactosyl-1,6-GPS) and β-D-galactosyl-(1→3)-α-D-glucosyl-(1→1)-D-mannitol(β-1,3-galactosyl-1,1-GPM)]",Hydrolysis rate [%],[1]; incubation time 0 min,0%
same,Hydrolysis rate [%],[1]; incubation time 60 min,0%
same,Hydrolysis rate [%],[1]; incubation time 120 min,0%
same,Hydrolysis rate [%],[1]; incubation time 180 min,<1%
same,"Hydrolysis rate [%], incubation with lactase",lactase,4.8%
same,"Growth on β-1,3-galactosyl isomalt",[2],+++
same,"Growth on β-1,3-galactosyl isomalt",B. angulatum DSM 20225,++
same,"Growth on β-1,3-galactosyl isomalt",B. bifidum DSM 20215,+
same,"Growth on β-1,3-galactosyl isomalt",B. bifidum DSM 20239,+
same,"Growth on β-1,3-galactosyl isomalt",B. catenulatum DSM 20103,++
same,"Growth on β-1,3-galactosyl isomalt",B. catenulatum DSM 20224,++
same,"Growth on β-1,3-galactosyl isomalt",B. infantis DSM 20088,++
same,"Growth on β-1,3-galactosyl isomalt",B. infantis DSM 20218,−
same,"Growth on β-1,3-galactosyl isomalt",B. longum DSM 20097,++
same,"Growth on β-1,3-galactosyl isomalt",B. longum DSM 20219,+++
